Measured values published in patent US12098109B2, “Reaction methods for producing nitrogenous phosphoryl compounds that are in situ fluid compositions” (SOILGENIC TECHNOLOGIES, LLC, priority 2021, dated 2024).
Read-outs that look alike come from different tables or passages of the source.

Assays:
[1] = Stability by top clear layer after 3 days @ 50 C; type: physicochemical
Experimental: (§1) Stability was determined by the measurement of the top clear layer after 3 days @ 50° C. Flowability was determined by measuring the elapsed time that it took for 4 grams of the 5 gram sample to flow out of a container with a 0.9 cm opening @ 25° C.

[2] = Flowability by elapsed flow-out time; type: physicochemical
Experimental: as §1

[3] = 1% dispersibility in water, 1 gram of sample in 99 grams of water
[4] = Sedimentation of inorganic chloride particles of Example 14 after adding organic liquids; type: physicochemical
[5] = tested on: West Texas Soil (Estacado Clay Loam); assay: Ammonia generation, N Yield vs N Yield + NH4Cl solutions with urea dropped onto soil sample; details: in the presence of NBPT
[6] = tested on: West Texas Soil (Estacado Clay Loam); assay: NH4Cl vs DCD as nitrification inhibitor, ammonia generation from treated urea; details: compared to DCD
[7] = tested on: West Texas Soil (Estacado Clay Loam); assay: Ammonia generation from treated urea on soil, headspace NH3 by Draeger am-5000 meter; details: for Measuring Ammonia Generation, Days Ran 3: day 3; for Measuring Ammonia Generation, Days Ran 4: day 4; for Measuring Ammonia Generation, Days Ran 5: day 5; for Measuring Ammonia Generation, Days Ran 6: day 6; for Measuring Ammonia Generation, Days Ran 7: day 7; for Measuring Ammonia Generation, Days Ran 10: day 10; for Measuring Ammonia Generation, Days Ran 11: day 11; for Measuring Ammonia Generation, Days Ran 13: day 13
[8] = 4% organic liquid added to Example 56, top clear layer after 3 days @ 50 C
[9] = 4% organic liquid added to Example 56, time for 4 grams of 5 gram sample to flow out of 0.9 cm opening @ 25 C
[10] = 4% organic liquid added to Example 56
[11] = organic liquid added to Example 56 at a 4% level
[12] = One Month Storage of treated urea
[13] = Two Month Storage of treated urea

OCC(O)CO [Glycerin]
Clear layer (cm) [1, 8]: 0.4 cm
seconds (flowability) [2, 9]: 2.35 s
1% dispersibility in water rating [3, 10]: 6
effect on Example 56's dispersibility in water [3, 11]: improve Example 56's dispersibility in water significantly

butyl carbonate
Clear layer in inches of a 4 inch sample [4]: 0 inches

CC[N+](C)(CC)CC.[Cl-] [triethyl methyl ammonium chloride]
Clear layer in inches of a 4 inch sample ([4]; 2 grams added/25 grams of Example 14, within 24 hours of standing): 0 inches

CC1(C)OCC(CO)O1 (stereo not drawn) [2,2-dimethyl-l,3-dioxolane-4-methanol, 2,2-dimethyl-1,3-dioxolane-4-methanol]
Clear layer (cm) [1, 8]: 0.3 cm
seconds (flowability) [2, 9]: 3.85 s
1% dispersibility in water rating [3, 10]: 6
effect on Example 56's dispersibility in water [3, 11]: improve Example 56's dispersibility in water significantly

C[S+](C)[O-] [dimethyl sulfoxide]
Clear layer in inches of a 4 inch sample ([4]; 8 grams added/25 grams of Example 14, within 24 hours of standing): <1 inches
Clear layer in inches of a 4 inch sample ([4]; 25 grams added/25 grams of Example 14, within 24 hours of standing): 1 inches
Clear layer (cm) [1, 8]: 0 cm
seconds (flowability) [2, 9]: 20.3 s
1% dispersibility in water rating [3, 10]: 4

CN1CCCC1=O [N-methyl pyrrolidone]
Clear layer (cm) [1, 8]: 0.45 cm
seconds (flowability) [2, 9]: 2.49 s
1% dispersibility in water rating [3, 10]: 3

Cl.N [NH4Cl, ammonium chloride]
behaviour in ammonia generation test [5]: performing as a nitrification inhibitor
performance as a nitrification inhibitor [6]: equivalent to DCD

CCOP(=O)(OCC)OCC [triethyl phosphate]
Clear layer in inches of a 4 inch sample [4]: 0 inches
Clear layer (cm) [1]: 0.4 cm
seconds (flowability) [2]: 4.03 s
1% dispersibility in water rating [3]: 6
effect on Example 56's dispersibility in water [3]: improve Example 56's dispersibility in water significantly

CCCCNP(N)(N)=S [NBPT, N-(n-butyl)-thiophosphoric triamide]
Measuring Ammonia Generation, Days Ran 3 ([7]; Initial): 9 ppm
Measuring Ammonia Generation, Days Ran 4 ([7]; Initial): 10 ppm
Measuring Ammonia Generation, Days Ran 5 ([7]; Initial): 4 ppm
Measuring Ammonia Generation, Days Ran 6 ([7]; Initial): 4 ppm
Measuring Ammonia Generation, Days Ran 7 ([7]; Initial): 14 ppm
Measuring Ammonia Generation, Days Ran 10 ([7]; Initial): 97 ppm
Measuring Ammonia Generation, Days Ran 11 ([7]; Initial): 88 ppm
Measuring Ammonia Generation, Total ([7]; Initial, total of days 3-11): 226 ppm
Measuring Ammonia Generation, Days Ran 3 [7, 12]: 111 ppm
Measuring Ammonia Generation, Days Ran 4 [7, 12]: 51 ppm
Measuring Ammonia Generation, Days Ran 5 [7, 12]: 57 ppm
Measuring Ammonia Generation, Days Ran 6 [7, 12]: 98 ppm
Measuring Ammonia Generation, Days Ran 7 [7, 12]: 236 ppm
Measuring Ammonia Generation, Days Ran 10 [7, 12]: 349 ppm
Measuring Ammonia Generation, Days Ran 11 [7, 12]: 251 ppm
Measuring Ammonia Generation, Days Ran 12 ([7]; One Month Storage of treated urea, day 12): 301 ppm
Measuring Ammonia Generation, Days Ran 13 [7, 12]: 153 ppm
Measuring Ammonia Generation, Total ([7]; One Month Storage of treated urea, total of days 3-13): 1607 ppm
Measuring Ammonia Generation, Days Ran 1 ([7]; Two Month Storage of treated urea, day 1): 103 ppm
Measuring Ammonia Generation, Days Ran 5 [7, 13]: 99 ppm
Measuring Ammonia Generation, Days Ran 6 [7, 13]: 32 ppm
Measuring Ammonia Generation, Days Ran 7 [7, 13]: 129 ppm
Measuring Ammonia Generation, Days Ran 8 ([7]; Two Month Storage of treated urea, day 8): 159 ppm
Measuring Ammonia Generation, Days Ran 9 ([7]; Two Month Storage of treated urea, day 9): 130 ppm
Measuring Ammonia Generation, Days Ran 13 [7, 13]: 152 ppm
Measuring Ammonia Generation, Days Ran 14 ([7]; Two Month Storage of treated urea, day 14): 66 ppm
Measuring Ammonia Generation, Days Ran 15 ([7]; Two Month Storage of treated urea, day 15): 49 ppm
Measuring Ammonia Generation, Days Ran 16 ([7]; Two Month Storage of treated urea, day 16): 68 ppm
Measuring Ammonia Generation, Total ([7]; Two Month Storage of treated urea, total): 884 ppm
